Active and inactive are the calls of the source.
Columns and labels:
[1] = Luminescent dose response cell-based high throughput screening assay for inhibitors of the Janus kinase 2 mutant JAK2V617F. [Related pubchem assays: 1446 (Primary screen.), 1521 (Confirmation assay.), 1486 (Counter screen.)]; format: functional
[2] = microbe, parasite or virus in culture; format: functional; conditions: Mycobacterium tuberculosis
[3] = Vero E6 cell cytotoxicity, dose response, cytotoxicity control for non-replicating M. tuberculosis project, secondary assay (AID 492998); format: functional, VeroE6; conditions: Vero C1008
cells [4] = format: functional
Estrogen receptor [5] = biological target: T1, Estrogen receptor (Homo sapiens, UniProt P03372); assay: ERα–SRC-3 coactivator interaction inhibitors, confirmation, orthogonal assay, biochemical, ELISA, streptavidin-HRP readout (AID 1079)
T1 sequence (P03372 whole entry): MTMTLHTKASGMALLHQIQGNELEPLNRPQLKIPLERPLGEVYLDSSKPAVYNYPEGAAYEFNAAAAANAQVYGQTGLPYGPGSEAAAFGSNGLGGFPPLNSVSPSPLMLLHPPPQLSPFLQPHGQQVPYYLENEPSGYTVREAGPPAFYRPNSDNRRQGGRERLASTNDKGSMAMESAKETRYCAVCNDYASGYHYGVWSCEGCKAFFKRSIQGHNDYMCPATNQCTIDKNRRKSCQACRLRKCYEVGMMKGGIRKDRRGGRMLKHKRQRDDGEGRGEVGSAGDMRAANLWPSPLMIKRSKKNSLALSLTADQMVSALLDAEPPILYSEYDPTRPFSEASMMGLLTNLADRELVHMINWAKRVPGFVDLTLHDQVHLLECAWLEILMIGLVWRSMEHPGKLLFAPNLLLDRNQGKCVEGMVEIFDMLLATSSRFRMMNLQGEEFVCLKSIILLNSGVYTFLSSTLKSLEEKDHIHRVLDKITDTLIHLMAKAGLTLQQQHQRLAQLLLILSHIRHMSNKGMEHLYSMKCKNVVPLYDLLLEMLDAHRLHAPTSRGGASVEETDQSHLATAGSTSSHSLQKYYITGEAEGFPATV

[6] = biological target: Solute carrier family 12 member 2/member 5 (Homo sapiens, UniProt P55011+Q9H2X9); assay: KCC2 and NKCC1 inhibition by rubidium flux, cell-based, NKCC1 counter-screen (AID 1734); format: functional, HEK293
Estrogen receptor [7] = biological target: T1, Estrogen receptor; assay: potentiators of ERα–SRC-1 coactivator binding, dose response, biochemical, TR-FRET, ERα LBD (AID 737)
[8] = inhibitors of intracellular T. cruzi replication, confirmation, NIH3T3 host cells, beta-gal luminescence (AID 2044); format: functional, cell-based;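 also: intracellular parasites grown in NIH/3T3 mouse fibroblasts as host cells; luminescent beta-galactosidase reporter signal from transgenic T. cruzi replicating inside host cells; inhibitors lower the luminescence signal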
[9] = cytotoxicity toward NIH3T3 fibroblasts, dose response, counter-screen, cell-based, ATP luminescence, mouse fibroblasts (AID 2010); format: functional;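 also: cells exposed to compound for about 90 hours before reading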
cells [10] = assay: cells
[11] = biological target: E3 ubiquitin-protein ligase Mdm2 (Homo sapiens, UniProt Q00987); assay: enhancers of MDM2-luciferase reporter signal, concentration-effect titration, project on inhibitors of MDM2 ubiquitin ligase, cellular assay, luminescent readout, 384-well plate format (AID 1394); format: functional;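 also: MDM2 E3 inhibitors raise luminescence so EC50 is for signal enhancement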
E3 ubiquitin-protein ligase Mdm2, sequence (Q00987 whole entry): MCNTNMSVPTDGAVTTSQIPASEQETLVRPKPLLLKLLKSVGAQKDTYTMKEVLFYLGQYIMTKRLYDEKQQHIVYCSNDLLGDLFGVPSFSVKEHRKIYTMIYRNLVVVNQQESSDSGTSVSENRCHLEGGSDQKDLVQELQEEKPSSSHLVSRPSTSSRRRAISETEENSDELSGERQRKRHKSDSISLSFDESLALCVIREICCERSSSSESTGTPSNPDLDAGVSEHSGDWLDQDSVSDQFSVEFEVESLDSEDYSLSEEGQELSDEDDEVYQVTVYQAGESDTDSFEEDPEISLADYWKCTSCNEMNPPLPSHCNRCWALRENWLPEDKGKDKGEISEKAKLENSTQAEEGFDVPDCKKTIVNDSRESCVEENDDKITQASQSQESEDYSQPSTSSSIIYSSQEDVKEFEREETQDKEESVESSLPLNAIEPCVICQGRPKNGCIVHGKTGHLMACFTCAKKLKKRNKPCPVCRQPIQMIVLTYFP

Cytochrome P450 2C19 = Cytochrome P450 2C19 (Homo sapiens, UniProt P33261); assay: Cytochrome panel assay with activity outcomes. Panel member name: p450-cyp2c19 Compounds with AC50 equal or less than 10 uM are considered active; format: functional
Cytochrome P450 2C19, sequence (P33261 whole entry): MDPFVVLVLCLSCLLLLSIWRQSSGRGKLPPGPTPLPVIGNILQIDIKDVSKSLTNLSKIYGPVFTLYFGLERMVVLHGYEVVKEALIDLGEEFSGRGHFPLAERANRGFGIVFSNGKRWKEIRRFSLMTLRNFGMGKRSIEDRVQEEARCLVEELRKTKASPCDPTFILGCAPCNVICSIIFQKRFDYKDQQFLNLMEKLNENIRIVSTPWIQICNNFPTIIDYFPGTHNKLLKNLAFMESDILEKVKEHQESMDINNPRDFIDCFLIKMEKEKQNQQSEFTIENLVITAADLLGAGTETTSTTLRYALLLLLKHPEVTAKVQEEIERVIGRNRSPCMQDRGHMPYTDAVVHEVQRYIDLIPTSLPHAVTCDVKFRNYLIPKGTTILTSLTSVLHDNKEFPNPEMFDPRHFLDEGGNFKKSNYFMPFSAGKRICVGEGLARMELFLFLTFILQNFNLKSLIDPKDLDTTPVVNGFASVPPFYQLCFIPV

## O=C(O)c1[nH]c(=O)[nH]c(=O)c1F
[1]
  IC50: 4.12 µM (active)
[2]
  CC50: > 40 µM (active)
[3]
  CC50: > 20 µM (active)
Cells [4]
  IC50: 5.96 µM (active)

## O=C(CCCCCn1c(=S)[nH]c2ccccc2c1=O)N1CCN(c2ncccn2)CC1
Estrogen receptor [5]
  IC50: 0.12 µM (not active)

## CCCn1c(N)c(C(=O)CSc2nnc(Cc3ccccc3)o2)c(=O)n(C)c1=O
[6]
  IC50: 1.6 µM (active)

## CC(C)CCNC(=O)COc1ccc2c3c(c(=O)oc2c1)CCC3
Estrogen receptor [7]
  EC50: 13.3 µM (not active)

## Cc1c(O)ccc2c(CN3CCN(Cc4ccccc4)CC3)cc(=O)oc12
[8]
  EC50: < 0.1 µM (active)
[9]
  EC50: > 60 µM (not active)
Cells [10]
  EC50: 0.024 µM (active)

## CCN1CCN(C(=O)CCc2nc3ccccc3c(=O)[nH]2)CC1
[11]
  EC50: 12.5 µM (not active)
Cytochrome P450 2C19
  AC50: inconclusive
